For 29 compounds, IC50 results are on record in patent US10407422B2, “Triazolopyridine inhibitors of myeloperoxidase” (priority 2015, dated 2019).

One may read the IC50 as the concentration that gives 50% inhibition. Low readings indicate higher potency, high ones lower potency.

Experiment [1] concerns the target T1, myeloperoxidase (MPO) (Homo sapiens (Human), UniProt P05164). Briefly: MPO chlorination assay (APF assay). Conditions: potency range class. The class given is biochemical. In a few lines: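 Human MPO (200 pM) preincubated 10 min at room temperature with inhibitor and 120 mM NaCl in 100 mM KPi pH 7.4. Reaction started with APF plus 10 μM H2O2, and hypochlorite-generated fluorescein read kinetically (ex 485/em 535 nm) for 3 min. IC50 from linear-phase slopes fitted to a four-parameter equation.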

Experiment [2] concerns the target T1, myeloperoxidase (MPO). Description: MPO peroxidation assay (Amplex Red assay). The format is biochemical. The note with it: potency range class. In a few lines: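 Human MPO at 200 pM with 40 nM H2O2 preincubated 10 min at room temperature with inhibitor in 100 mM KPi pH 7.4. Reaction started with Amplex Red mixture (200 μM Amplex Red, 10 mM H2O2); resorufin fluorescence (Ex 535, Em 590 nm) read kinetically for 15 min. IC50 fitted from slopes over 180-540 s.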

T1 sequence (P05164 49-745): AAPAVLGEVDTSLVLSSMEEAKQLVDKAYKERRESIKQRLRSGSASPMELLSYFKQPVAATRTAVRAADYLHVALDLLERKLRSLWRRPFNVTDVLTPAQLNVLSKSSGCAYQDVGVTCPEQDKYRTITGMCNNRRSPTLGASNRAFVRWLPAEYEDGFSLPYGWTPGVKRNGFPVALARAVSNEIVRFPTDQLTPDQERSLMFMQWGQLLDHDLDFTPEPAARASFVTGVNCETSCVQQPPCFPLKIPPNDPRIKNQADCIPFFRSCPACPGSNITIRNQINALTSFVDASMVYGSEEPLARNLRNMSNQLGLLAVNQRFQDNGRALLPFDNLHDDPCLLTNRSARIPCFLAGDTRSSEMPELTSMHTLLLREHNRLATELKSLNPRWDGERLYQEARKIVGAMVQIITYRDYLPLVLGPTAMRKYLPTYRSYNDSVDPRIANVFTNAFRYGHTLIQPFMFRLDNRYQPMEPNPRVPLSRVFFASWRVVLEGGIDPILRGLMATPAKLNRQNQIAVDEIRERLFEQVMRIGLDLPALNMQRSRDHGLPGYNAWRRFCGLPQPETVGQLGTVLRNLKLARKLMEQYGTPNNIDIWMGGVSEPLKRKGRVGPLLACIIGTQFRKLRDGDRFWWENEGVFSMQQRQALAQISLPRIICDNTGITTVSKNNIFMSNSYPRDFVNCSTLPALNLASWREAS

In the case of `Nc1cc(Cc2cnn(CC3Cc4ccccc4C3)c2)c2nn[nH]c2n1` [Example 118, 7-((1-((2,3-Dihydro-1H-inden-2-yl)methyl)-1H-pyrazol-4-yl)methyl)-3H-[1,2,3]triazolo[4,5-b]pyridin-5-amine], the IC50 on myeloperoxidase (MPO) [1] and at myeloperoxidase (MPO) [2] was 0.001 to 0.1 µM each time.

Turning to `Cc1nc(-c2ccc(Cl)cc2)sc1Cn1cc(Cc2cc(N)nc3[nH]nnc23)cn1` [Example 119, 7-((1-((2-(4-Chlorophenyl)-4-methylthiazol-5-yl)methyl)-1H-pyrazol-4-yl)methyl)-3H-[1,2,3]triazolo[4,5-b]pyridin-5-amine], the IC50 at myeloperoxidase (MPO) [1] is 0.101 to 0.999 µM; at myeloperoxidase (MPO) [2], 0.001 to 0.1 µM.

As to `Nc1cc(Cc2cnn(Cc3nc(-c4ccccc4)no3)c2)c2nn[nH]c2n1` [Example 120, 7-((1-((3-Phenyl-1,2,4-oxadiazol-5-yl)methyl)-1H-pyrazol-4-yl)methyl)-3H-[1,2,3]triazolo[4,5-b]pyridin-5-amine], the concentration for half-maximal inhibition (IC50) was 0.101 to 0.999 µM at myeloperoxidase (MPO) [1] and 0.001 to 0.1 µM against myeloperoxidase (MPO) [2].

Take `Nc1cc(Cc2cnn(Cc3cc(-c4ccccc4)on3)c2)c2nn[nH]c2n1` [Example 121, 7-((1-((5-Phenylisoxazol-3-yl)methyl)-1H-pyrazol-4-yl)methyl)-3H-[1,2,3]triazolo[4,5-b]pyridin-5-amine]: the half-inhibitory concentration (IC50) on myeloperoxidase (MPO) [1] was 0.101 to 0.999 µM; at myeloperoxidase (MPO) [2] it was 0.001 to 0.1 µM.

For the compound `CS(=O)(=O)c1cccc(Cn2cc(Cc3cc(N)nc4[nH]nnc34)cn2)c1` [Example 122, 7-((1-(3-(Methylsulfonyl)benzyl)-1H-pyrazol-4-yl)methyl)-3H-[1,2,3]triazolo[4,5-b]pyridin-5-amine], the IC50 lay in the range of 0.101 to 0.999 µM against myeloperoxidase (MPO) [1] and 0.001 to 0.1 µM against myeloperoxidase (MPO) [2].

On to `Nc1cc(Cc2cnn(Cc3cccc(-c4ccccc4)n3)c2)c2nn[nH]c2n1` [Example 123, 7-((1-((6-Phenylpyridin-2-yl)methyl)-1H-pyrazol-4-yl)methyl)-3H-[1,2,3]triazolo[4,5-b]pyridin-5-amine], for which the IC50 at myeloperoxidase (MPO) [1] and against myeloperoxidase (MPO) [2] was 0.001 to 0.1 µM each time.

Consider `Nc1cc(Cc2cnn(Cc3cccc(-c4cccnc4)c3)c2)c2nn[nH]c2n1` [Example 124, 7-((1-(3-(Pyridin-3-yl)benzyl)-1H-pyrazol-4-yl)methyl)-3H-[1,2,3]triazolo[4,5-b]pyridin-5-amine], for which the IC50 against myeloperoxidase (MPO) [1] and against myeloperoxidase (MPO) [2] was 0.001 to 0.1 µM in each case.

Turning to `Nc1cc(Cc2cnn(Cc3cncc(-c4ccccc4)c3)c2)c2nn[nH]c2n1` [Example 125, 7-((1-((5-Phenylpyridin-3-yl)methyl)-1H-pyrazol-4-yl)methyl)-3H-[1,2,3]triazolo[4,5-b]pyridin-5-amine], the IC50 against myeloperoxidase (MPO) [1] and on myeloperoxidase (MPO) [2] was 0.001 to 0.1 µM throughout.

Turning to `Nc1cccc(Cn2cc(Cc3cc(N)nc4[nH]nnc34)cn2)c1` [Example 126, 7-((1-(3-Aminobenzyl)-1H-pyrazol-4-yl)methyl)-3H-[1,2,3]triazolo[4,5-b]pyridin-5-amine], the IC50 at myeloperoxidase (MPO) [1] fell in the range of 0.101 to 0.999 µM; against myeloperoxidase (MPO) [2], 0.001 to 0.1 µM.

Regarding `Nc1cc(Cc2cnn(Cc3ccc4cnccc4c3)c2)c2nn[nH]c2n1` [Example 127, 7-((1-(Isoquinolin-6-ylmethyl)-1H-pyrazol-4-yl)methyl)-3H-[1,2,3]triazolo[4,5-b]pyridin-5-amine], the IC50 on myeloperoxidase (MPO) [1] and against myeloperoxidase (MPO) [2] was 0.101 to 0.999 µM each time.

`Nc1cc(Cc2cnn(Cc3ccc4ncccc4c3)c2)c2nn[nH]c2n1` [Example 128, 7-((1-(Quinolin-6-ylmethyl)-1H-pyrazol-4-yl)methyl)-3H-[1,2,3]triazolo[4,5-b]pyridin-5-amine]: the results for the IC50 against myeloperoxidase (MPO) [1] and against myeloperoxidase (MPO) [2] were 0.101 to 0.999 µM and 0.001 to 0.1 µM, respectively.

Take `CC(C)(C)OC(=O)N1CCc2cc(Cn3cc(Cc4cc(N)nc5[nH]nnc45)cn3)ccc2C1` [Example 129, tert-Butyl 6-((4-((5-amino-3H-[1,2,3]triazolo[4,5-b]pyridin-7-yl)methyl)-1H-pyrazol-1-yl)methyl)-3,4-dihydroisoquinoline-2(1H)-carboxylate]: the IC50 against myeloperoxidase (MPO) [1] lay within 1 to 10 µM; against myeloperoxidase (MPO) [2] it was 0.101 to 0.999 µM.

In the case of `Nc1cc(Cc2cnn(Cc3ccc4c(c3)CCN(C(=O)c3ncc[nH]3)C4)c2)c2nn[nH]c2n1` [Example 131, (6-((4-((5-Amino-3H-[1,2,3]triazolo[4,5-b]pyridin-7-yl)methyl)-1H-pyrazol-1-yl)methyl)-3,4-dihydroisoquinolin-2(1H)-yl)(1H-imidazol-2-yl)methanone], the 50% inhibitory concentration (IC50) at myeloperoxidase (MPO) [1] and against myeloperoxidase (MPO) [2] was 0.101 to 0.999 µM in each case.

Regarding `Nc1cc(Cc2cnn(Cc3ccc4[nH]c(=O)ccc4c3)c2)c2nn[nH]c2n1` [Example 132, 6-((4-((5-Amino-3H-[1,2,3]triazolo[4,5-b]pyridin-7-yl)methyl)-1H-pyrazol-1-yl)methyl)quinolin-2(1H)-one], the IC50 at myeloperoxidase (MPO) [1] and against myeloperoxidase (MPO) [2] was 0.001 to 0.1 µM each time.

Turning to `Nc1cc(Cc2cnn(Cc3cccc(-c4ccccn4)c3)c2)c2nn[nH]c2n1` [Example 133, 7-[(1-{[3-(Pyridin-2-yl)phenyl]methyl}-1H-pyrazol-4-yl)methyl]-3H-[1,2,3]triazolo[4,5-b]pyridin-5-amine], the IC50 against myeloperoxidase (MPO) [1] and on myeloperoxidase (MPO) [2] was 0.001 to 0.1 µM each time.

In the case of `CC(C)(C)c1cccc(Cn2cc(Cc3cc(N)nc4[nH]nnc34)cn2)c1` [Example 134, 7-({1-[(3-tert-Butylphenyl)methyl]-1H-pyrazol-4-yl}methyl)-3H-[1,2,3]triazolo[4,5-b]pyridin-5-amine], the IC50 at myeloperoxidase (MPO) [1] and against myeloperoxidase (MPO) [2] was 0.001 to 0.1 µM in each case.

For the compound `Nc1cc(Cc2cnn(Cc3cccc4c3CCCC4)c2)c2nn[nH]c2n1` [Example 135, 7-{[1-(5,6,7,8-Tetrahydronaphthalen-1-ylmethyl)-1H-pyrazol-4-yl]methyl}-3H-[1,2,3]triazolo[4,5-b]pyridin-5-amine], the IC50 on myeloperoxidase (MPO) [1] and on myeloperoxidase (MPO) [2] was 0.001 to 0.1 µM throughout.

As for `Nc1cc(Cc2cnn(CC3CCc4ccccc4C3)c2)c2nn[nH]c2n1` (stereo not shown) [Example 136, 7-{[1-(1,2,3,4-Tetrahydronaphthalen-2-ylmethyl)-1H-pyrazol-4-yl]methyl}-3H-[1,2,3]triazolo[4,5-b]pyridin-5-amine], the IC50 against myeloperoxidase (MPO) [1] and against myeloperoxidase (MPO) [2] was 0.001 to 0.1 µM throughout.

Regarding `Cn1nc(Cn2cc(Cc3cc(N)nc4[nH]nnc34)cn2)c2ccccc21` [Example 137, 7-({1-[(1-Methyl-1H-indazol-3-yl)methyl]-1H-pyrazol-4-yl}methyl)-3H-[1,2,3]triazolo[4,5-b]pyridin-5-amine], the IC50 on myeloperoxidase (MPO) [1] lay within 0.101 to 0.999 µM; at myeloperoxidase (MPO) [2], 0.001 to 0.1 µM.

Consider `CCn1c(Cn2cc(Cc3cc(N)nc4[nH]nnc34)cn2)nc2ccccc21` [Example 138, 7-((1-((1-Ethyl-1H-benzo[d]imidazol-2-yl)methyl)-1H-pyrazol-4-yl)methyl)-3H-[1,2,3]triazolo[4,5-b]pyridin-5-amine], for which the IC50 against myeloperoxidase (MPO) [1] was 0.101 to 0.999 µM; against myeloperoxidase (MPO) [2] it was 0.001 to 0.1 µM.

With `CC1CCN(S(=O)(=O)c2cccc(Cn3cc(Cc4cc(N)nc5[nH]nnc45)cn3)c2)CC1` [Example 139, 7-{[1-({3-[(4-Methylpiperidin-1-yl)sulfonyl]phenyl}methyl)-1H-pyrazol-4-yl]methyl}-3H-[1,2,3]triazolo[4,5-b]pyridin-5-amine], the IC50 on myeloperoxidase (MPO) [1] lay in the range of 0.101 to 0.999 µM; at myeloperoxidase (MPO) [2], 0.001 to 0.1 µM.

Consider `Cc1cncc(Oc2cccc(Cn3cc(Cc4cc(N)nc5[nH]nnc45)cn3)c2)n1` [Example 140, 7-{[1-({3-[(6-Methylpyrazin-2-yl)oxy]phenyl}methyl)-1H-pyrazol-4-yl]methyl}-3H-[1,2,3]triazolo[4,5-b]pyridin-5-amine], for which the IC50 against myeloperoxidase (MPO) [1] is 0.101 to 0.999 µM; at myeloperoxidase (MPO) [2], 0.001 to 0.1 µM.

In the case of `COc1ccc(Cn2cc(Cc3cc(N)nc4[nH]nnc34)cn2)cc1` [Example 141, 7-({1-[(4-Methoxyphenyl)methyl]-1H-pyrazol-4-yl}methyl)-3H-[1,2,3]triazolo[4,5-b]pyridin-5-amine], the IC50 at myeloperoxidase (MPO) [1] and on myeloperoxidase (MPO) [2] was 0.001 to 0.1 µM throughout.

Turning to `Nc1cc(Cc2cnn(C(CCO)c3ccccc3)c2)c2nn[nH]c2n1` (stereo not shown) [Example 143, 3-(4-((5-Amino-3H-[1,2,3]triazolo[4,5-b]pyridin-7-yl)methyl)-1H-pyrazol-1-yl)-3-phenylpropan-1-ol], the IC50 on myeloperoxidase (MPO) [1] and against myeloperoxidase (MPO) [2] was 0.101 to 0.999 µM in each case.

`CC(C)(C)[Si](C)(C)OCC(c1ccccc1)n1cc(Cc2cc(N)nc3[nH]nnc23)cn1` (stereo not shown) [Example 144]: the IC50 on myeloperoxidase (MPO) [1] and against myeloperoxidase (MPO) [2] was 0.101 to 0.999 µM in each case.

Take `Nc1cc(Cc2cnn(C(CO)c3ccccc3)c2)c2nn[nH]c2n1` (stereo not shown) [Example 145, 2-(4-((5-Amino-3H-[1,2,3]triazolo[4,5-b]pyridin-7-yl)methyl)-1H-pyrazol-1-yl)-2-phenylethanol]: the IC50 against myeloperoxidase (MPO) [1] and against myeloperoxidase (MPO) [2] was 0.101 to 0.999 µM in each case.

Regarding `Nc1cc(Cc2cnn(C(CCCO)c3ccccc3)c2)c2nn[nH]c2n1` (stereo not shown) [Example 146, 4-[4-({5-Amino-3H-[1,2,3]triazolo[4,5-b]pyridin-7-yl}methyl)-1H-pyrazol-1-yl]-4-phenylbutan-1-ol], the IC50 against myeloperoxidase (MPO) [1] and at myeloperoxidase (MPO) [2] was 0.101 to 0.999 µM each time.

Turning to `CC(C)(C)OC(=O)N1CCCc2ccc(Cn3cc(Cc4cc(N)nc5[nH]nnc45)cn3)cc21` [Example 147, tert-Butyl 7-{[4-({5-amino-3H-[1,2,3]triazolo[4,5-b]pyridin-7-yl}methyl)-1H-pyrazol-1-yl]methyl}-1,2,3,4-tetrahydroquinoline-1-carboxylate], the concentration for half-maximal inhibition (IC50) on myeloperoxidase (MPO) [1] and against myeloperoxidase (MPO) [2] was 0.101 to 0.999 µM each time.

For the compound `CC(C)(C)OC(=O)N1CCc2ccc(Cn3cc(Cc4cc(N)nc5[nH]nnc45)cn3)cc2C1` [Example 148, tert-Butyl 7-{[4-({5-amino-3H-[1,2,3]triazolo[4,5-b]pyridin-7-yl}methyl)-1H-pyrazol-1-yl]methyl}-1,2,3,4-tetrahydroisoquinoline-2-carboxylate], the half-inhibitory concentration (IC50) at myeloperoxidase (MPO) [1] and against myeloperoxidase (MPO) [2] was 0.101 to 0.999 µM each time.
